SMILES strings stand for the structures. pIC50: −log10 of the molar value. Several values for one entry are separate records, joined by “and”; a condition that tells them apart may be missing. Equal values may be shown once.

In the assay the target is Genome polyprotein (dengue virus type 2, UniProt P29990). The assay is classed as functional, Thailand/16681/1984.
Chain of Genome polyprotein (P29990 1346-1475 limits assumed): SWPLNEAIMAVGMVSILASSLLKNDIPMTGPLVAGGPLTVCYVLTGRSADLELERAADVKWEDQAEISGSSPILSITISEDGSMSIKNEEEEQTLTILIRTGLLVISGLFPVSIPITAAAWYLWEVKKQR
Chain of Genome polyprotein (P29990 1476-2093 limits assumed): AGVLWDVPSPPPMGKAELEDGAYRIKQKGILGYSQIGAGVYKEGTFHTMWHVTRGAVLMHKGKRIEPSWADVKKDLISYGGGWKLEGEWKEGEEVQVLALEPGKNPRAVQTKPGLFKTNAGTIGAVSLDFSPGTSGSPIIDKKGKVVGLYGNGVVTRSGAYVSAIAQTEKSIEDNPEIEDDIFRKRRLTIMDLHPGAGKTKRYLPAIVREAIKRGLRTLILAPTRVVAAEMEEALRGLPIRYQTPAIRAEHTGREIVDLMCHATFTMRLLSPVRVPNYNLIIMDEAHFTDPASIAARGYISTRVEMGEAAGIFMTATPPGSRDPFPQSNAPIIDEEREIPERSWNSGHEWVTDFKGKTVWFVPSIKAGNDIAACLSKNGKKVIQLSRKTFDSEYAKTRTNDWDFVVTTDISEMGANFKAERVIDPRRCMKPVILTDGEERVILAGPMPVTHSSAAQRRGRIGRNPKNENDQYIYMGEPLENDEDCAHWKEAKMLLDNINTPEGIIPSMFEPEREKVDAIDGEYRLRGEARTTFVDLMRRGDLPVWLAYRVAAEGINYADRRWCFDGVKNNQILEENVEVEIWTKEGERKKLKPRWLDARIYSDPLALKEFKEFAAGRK
On to `O=C1c2c(O)ccc([N+](=O)[O-])c2C(=O)c2c([N+](=O)[O-])ccc(O)c21`, for which the pIC50 (in general, −log10 of the IC50, conventionally taken in molar units) is 4.90 and < 4.00. The value for `O=C(C(=O)N1CCOCC1)c1c[nH]c2ccccc12` was under 4.00; that for `COc1ccc(S(=O)(=O)n2nc(OC(=O)c3cccc(-c4ccccc4Cl)c3)cc2N)cc1` was under 4.00; that for `CCCCCC(=O)N[C@H](C(=O)NCc1cccc(CN)c1)c1ccc(OCc2ccccc2)cc1` was 4.07.

Consider `CCCC[C@H](NC(C)=O)C(=O)N[C@H](C(=O)NCc1ccc(C(N)=O)cc1)c1ccc(OCc2ccccc2)cc1`, for which the pIC50 was under 4.00. Molecule `NC(=O)c1cccc(NC(=O)[C@@H](NC(=O)c2ccc(Oc3ccc(C(F)(F)F)cc3)cc2)c2ccc(OCc3ccccc3)cc2)c1` gave a pIC50 of under 4.00. In the case of `O=C(Nc1ccc2c(c1)B(O)OC2)c1cccc(OCc2c(Cl)cccc2Cl)c1`, the pIC50 is under 4.00. The same measure for `COc1ccc(S(=O)(=O)Nc2ccc(C(=O)Nc3nc4ccccc4s3)cc2)cc1`: under 4.00. In turn, `CNC(=O)c1cc(Cl)ccc1NS(=O)(=O)c1cccc(Oc2ccccc2)c1` showed a pIC50 of under 4.00.

`CN(C)c1ccc(/C=C/C(=O)C(=O)N2CCOCC2)cc1` showed a pIC50 of 4.05. Turning to `Nc1ccc(C(=O)Nc2nc3ccccc3s2)nc1`, the pIC50 is under 4.00. The molecule `CNC(=O)c1cc(Cl)ccc1NS(=O)(=O)c1ccc(OC2CCCC2)nc1` had a pIC50 of under 4.00.

Regarding `O=S(=O)(Nc1ccc(Oc2ccccc2Cl)cc1)c1c[nH]c2ccc(Cl)cc12`, the pIC50 is under 4.00. For `Cc1nnc([C@H](C)n2cc(C3CCNCC3)c(C)n2)o1`, the pIC50 was under 4.00.

`CCCC[C@@H](NC(=O)OC(C)(C)C)C(=O)N[C@@H](C(=O)NCc1ccc(CN)cc1)c1ccc(OCc2ccccc2)cc1` gave a pIC50 of 4.44. In turn, `O=C(/C=C/c1ccc(N2CCNCC2)cc1)C(=O)N1CCOCC1` gave a pIC50 of under 4.00. Molecule `CNC(=O)c1cccc(CNc2cc(Cl)cc(C(=O)NC(C)(C)CO)c2)c1` gave a pIC50 of under 4.00. The value for `CCCC[C@H](N)C(=O)N[C@H](C(=O)NCc1ccc(C(N)=O)cc1)c1ccc(OCc2ccccc2)cc1` was under 4.00; that for `CCc1ccc(NS(=O)(=O)c2ccc(Oc3ccccc3Cl)cc2)c(C(=O)NC)c1` was under 4.00. The same measure for `CNC(=O)c1cc(OC)ccc1NS(=O)(=O)c1ccc(Oc2ccccc2Cl)cc1`: under 4.00; for `CNC(=O)c1cc(Cl)c(OC)cc1NS(=O)(=O)c1ccc(Oc2ccccc2Cl)cc1`: 4.50; for `CCCC[C@H](N)C(=O)N[C@@H](C(=O)NCc1ccc(C(N)=O)cc1)c1ccc(OCc2ccccc2)cc1`: under 4.00. `CNC(=O)c1cc(C#N)ccc1NS(=O)(=O)c1ccc(Oc2ccccc2Cl)cc1` gave a pIC50 of 4.35. The same measure for `NC(=O)c1cn(C[C@H]2CCCN2c2ccnc3ccccc23)nn1`: under 4.00. The value for `Nc1ccc(/C=C/C(=O)C(=O)N2CCN(CCc3ccccc3)CC2)cc1` was under 4.00; that for `CCCC[C@H](NC(C)=O)C(=O)N[C@H](C(=O)NCc1ccc(CN)cc1)c1ccccc1` was under 4.00; that for `CCn1ccnc(N2CC[C@H](c3cccnc3)C2)c1=O` was under 4.00. `CCn1ccnc(N2CC[C@H](c3ccn[nH]3)C2)c1=O` had a pIC50 of under 4.00.

`NC(=O)c1ccccc1NS(=O)(=O)c1ccc(Oc2ccccc2Cl)cc1`: the pIC50 is under 4.00. As to `CCCN(C)C(=O)c1cc(Cl)ccc1NS(=O)(=O)c1ccc(Oc2ccccc2Cl)cc1`, the pIC50 was 4.55. With `CCn1ccnc(N2C[C@@H](O)[C@H](c3c[nH]c4ccccc34)C2)c1=O`, the pIC50 was under 4.00. `O=C(O)c1cccc(NC(=O)c2cccc(OCc3c(Cl)cccc3Cl)c2)c1` had a pIC50 of under 4.00. The same measure for `CNC(=O)c1cccc(CCC(=O)Nc2cc(Cl)cc(C(=O)NC(C)(C)CO)c2)c1`: under 4.00; for `N=C(N)NCCc1ccc(OC(=O)Nc2ccccc2)cc1`: under 4.00. The same measure for `Cc1cc(NS(=O)(=O)c2ccc(Oc3ccccc3Cl)cc2)c(C(=O)NCC(F)(F)F)cc1F`: 4.66; for `CCCC[C@H](NC(=O)OC(C)(C)C)C(=O)N[C@H](C(=O)NCc1ccc(C(N)=O)cc1)c1ccc(OCc2ccccc2)cc1`: under 4.00; for `CCn1ccnc(N2CC[C@@H](C(=O)NC)C2)c1=O`: under 4.00. On to `N#Cc1cccc(NC(=O)c2cccc(OCc3c(Cl)cccc3Cl)c2)c1`, for which the pIC50 was under 4.00. In turn, `O=C(c1cc(Cl)ccc1NS(=O)(=O)c1ccc(Oc2ccccc2Cl)cc1)N1CCCC1` showed a pIC50 of 4.18. The same measure for `NCc1cccc(NC(=O)[C@@H](NC(=O)OCc2ccccc2)c2ccc(F)cc2F)c1`: under 4.00; for `CCn1c(=O)c(N2CC[C@@H](CO)C2)nc2ccccc21`: under 4.00; for `CC(C)c1ccc([C@@H](NC(=O)OCc2ccccc2)C(=O)Nc2cccc(CN)c2)cc1`: under 4.00. The same measure for `CS(=O)(=O)Nc1ccc(C(=O)Nc2nc3ccccc3s2)cc1`: under 4.00; for `CNC(=O)c1cc(Br)cnc1NS(=O)(=O)c1ccc(Oc2ccccc2Cl)cc1`: 4.15.

Molecule `CCn1ccnc(N2CCC(c3c[nH]c4ccccc34)CC2)c1=O` showed a pIC50 of under 4.00.

On to `O=C(NCc1cocn1)c1cc(Cl)ccc1NS(=O)(=O)c1ccc(Oc2ccccc2Cl)cc1`, for which the pIC50 was 4.61. The molecule `COc1cc(Cc2c(-c3ccc(F)cc3)noc2C)nc(N2CCNCC2)n1` had a pIC50 of under 4.00. The same measure for `NCc1cccc(NC(=O)[C@H]2c3ccccc3CCN2C(=O)OCc2ccccc2)c1`: under 4.00. Turning to `CC(C)Nc1nc2ccc(C(=O)Nc3nnnn3-c3ccccn3)cc2[nH]1`, the pIC50 is under 4.00. `NCc1cccc(NC(=O)[C@@H](NC(=O)OCc2ccccc2)C(C2CCC2)C2CCC2)c1`: the pIC50 is < 4.00 and 4.00.

In turn, `CCn1ccnc(N2CC[C@@H](CC(N)=O)C2)c1=O` gave a pIC50 of under 4.00.

Consider `N=C(N)Nc1ccc(NC(=O)Oc2ccccc2)cc1`, for which the pIC50 is under 4.22. The value for `COc1cc(COc2cncc3ccccc23)nc(N2CCNCC2)n1` was under 4.00.

In the case of `O=S(=O)(Nc1ccc(Cl)cc1)c1ccc(Oc2ccccc2Cl)cc1`, the pIC50 is under 4.00.

For the molecule `CCn1ccnc(N2CC[C@H](c3cccc(C#N)c3)C2)c1=O`, the pIC50 was under 4.00. The value for `CN(C)Cc1ccc(C(=O)Nc2cc(Cl)cc(C(=O)NC(C)(C)CO)c2)[nH]1` was under 4.00; that for `CCn1ccnc(N2CC[C@H](c3c[nH]c4ccccc34)C2)c1=O` was under 4.00. `N=C(N)Nc1ccc(OC(=O)Nc2ccccc2)cc1` gave a pIC50 of under 4.00.

The molecule `O=C(NCC1CC1)c1cc(Cl)ccc1NS(=O)(=O)c1ccc(Oc2ccccc2Cl)cc1` had a pIC50 of 4.66.

Regarding `NCc1ccc(/C=C/C(=O)C(=O)N2CCOCC2)cc1`, the pIC50 is under 4.00.

`CCn1ccnc(N2CC[C@H](c3ccc(OC)nc3)C2)c1=O` had a pIC50 of under 4.00.

As for `CCn1ccnc(N2CC[C@H](c3ccc(F)cc3)C2)c1=O`, the negative logarithm of the IC50 (pIC50) was under 4.00. Turning to `CCn1ccnc(N2CC[C@H](C3CCOCC3)C2)c1=O`, the pIC50 was under 4.00. On to `N=C(N)NCCc1ccc(NC(=O)Oc2ccccc2)cc1`, for which the pIC50 was under 4.00. The value for `CNC(=O)c1cc(Cl)ccc1NS(=O)(=O)c1ccc(Oc2ccccc2Cl)cc1` was 4.47. Molecule `NCc1cccc(NC(=O)[C@@H](NC(=O)OCc2ccccc2)c2cc(F)cc(F)c2)c1` had a pIC50 of under 4.00. The value for `CCn1ccnc(N2CC[C@H](c3ccncc3)C2)c1=O` was under 4.00; that for `CC(C)CNC(=O)c1cc(Cl)ccc1NS(=O)(=O)c1ccc(Oc2ccccc2Cl)cc1` was 4.89.

For `CCCC[C@H](NC(C)=O)C(=O)N[C@H](C(=O)Nc1ccc(C(N)=O)cc1)c1ccc(OCc2ccccc2)cc1`, the pIC50 was under 4.00. The value for `CC(C)(CO)NC(=O)c1cc(Cl)cc(NC(=O)c2cc(Cl)ccc2O)c1` was under 4.00; that for `CS(=O)(=O)c1ccc(N2CCNCC2)cc1NC(=O)c1cccc2ncccc12` was under 4.00. `CCOc1ccc([C@@H](NC(=O)OCc2ccccc2)C(=O)Nc2cccc(CN)c2)cc1`: the pIC50 was under 4.00. The same measure for `O=C(c1cc(Cl)ccc1NS(=O)(=O)c1ccc(Oc2ccccc2Cl)cc1)N1CCC[C@@H]1CO`: 4.20.

As for `CCn1ccnc(N2CC[C@H](C#N)C2)c1=O`, the pIC50 is under 4.00.

Regarding `CCn1ccnc(N2CC[C@@H](CO)C2)c1=O`, the pIC50 was under 4.00. The same measure for `NCc1cccc(NC(=O)[C@@H](NC(=O)OCc2ccccc2)c2cccc(F)c2F)c1`: under 4.00; for `CN(CCS(N)(=O)=O)C(=O)c1cc(Cl)ccc1NS(=O)(=O)c1ccc(Oc2ccccc2Cl)cc1`: 4.08; for `CCn1ccnc(N2CC[C@@H](Cc3ccncc3)C2)c1=O`: under 4.00. Consider `O=C(O)c1cccc(NC(=O)c2ccc3[nH]ccc3c2)c1`, for which the pIC50 is under 4.00. `CCn1ccnc(N2CC[C@@H](CC#N)C2)c1=O` showed a pIC50 of under 4.00. Take `CCCC[C@H](NC(C)=O)C(=O)N[C@H](C(=O)NCc1ccc(CN)cc1)c1ccc(OCc2ccccc2)cc1`: the pIC50 was 4.11. The same measure for `Cc1cc(-n2nccc2NC(=O)[C@]2(c3ccc(F)cc3)CCCNC2)ncn1`: under 4.00. The value for `N=C(N)NCCc1cccc(B(O)O)c1` was under 4.00; that for `N=C(N)NCc1ccc(NC(=O)Oc2ccccc2)cc1` was under 4.22.

`N=C(N)NCc1ccc(OC(=O)Nc2ccccc2)cc1`: the pIC50 is under 4.00. The value for `O=C(NCc1ccccc1)c1cc(O)ccc1NS(=O)(=O)c1ccc(Oc2ccccc2Cl)cc1` was 4.06; that for `CNC(=O)c1cc(Cl)c(F)cc1NS(=O)(=O)c1ccc(Oc2ccccc2Cl)cc1` was 4.83; that for `NCc1cccc(NC(=O)[C@@H](NC(=O)OCc2ccccc2)c2ccc(Cl)cc2)c1` was under 4.00.

Take `CNC(=O)c1cnncc1NS(=O)(=O)c1ccc(Oc2ccccc2Cl)cc1`: the pIC50 is under 4.00. Regarding `CC[C@H]1CCN(c2nccn(CC)c2=O)C1`, the pIC50 is under 4.00. The value for `O=C(O)c1cc(Cl)ccc1NS(=O)(=O)c1ccc(Oc2ccccc2Cl)cc1` was 4.86; that for `CC(C)(CO)NC(=O)c1cc(Cl)cc(NC(=O)c2ccc(O)nc2)c1` was under 4.00; that for `CCn1ccnc(N2CC[C@H](c3ccc(C#N)cc3)C2)c1=O` was under 4.00.

Molecule `O=C(Nc1ccc(F)nc1)Oc1ccccc1` gave a pIC50 of under 4.22.

Source of the values: ChEMBL document CHEMBL5604063, “ASAP - DENV-2 NS2B-NS3 protease fluorescence dose response” (2024).
